The text below walks through data of US20230381170A1, “METHOD FOR TREATING ALS/FTD THROUGH DEGRADATION OF RNA REPEAT EXPANSION” (University of Florida Research Foundation, Incorporated, priority 2020, published 2023).

Where two headings read alike, the source gives them in different places. Some results are limits rather than exact numbers.

The target in test [1] is r(G4C2)8. As to the kind of experiment: Biolayer interferometry (BLI) binding. Conditions: for Kd: BLI. Here is the method: (§1) Biolayer Interferometry (BLI). BLI studies were performed similarly as previously described (12) using an Octet RED96. Briefly, 5′-biotinylated nucleic acids were folded by heating at 95° C. for 4 min in 10 mM sodium phosphate buffer, pH 7, followed by slowly cooling to room temperature. Then, to the folded RNA were added the following components: 1.386 mL 1×DPBS (21-031-CV, Corning), 180 μL freshly prepared 1% (w/v) BSA, 36 μL 1% (v/v) Tween-20, and 18 μL DMSO (1% final concentration) in a final volume of 1.8 mL. The final concentration of RNA was 0.5 μM. Separately, serial dilutions of the compound of interest were prepared in the same buffer.
(§2) The resulting curves were analyzed and processed using Octet Data Analysis software version 9.1 by subtracting the response of the sensors recorded upon incubation with solutions containing compound and no RNA (parallel reference). The data were then fitted assuming reversible binding using the entire time interval for association and dissociation using either 1:1 or the 2:1 heterogeneous binding curve fitting model. The reported Kd,n, kon,n and koff,n values represent the average of two independent experiments.
Background: In BLI a coated tip is dipped into the sample, and binding shifts an interference pattern.

The target of the next test is r(G2C2)10. The test is described as follows: Biolayer interferometry (BLI) binding. Conditions: BLI; read-out: Kd, 1. Here is the method:
as §1
as §2, with “Streptavidin sensors (SA, #18-5019, ForteBio) were equilibrated with buffer for 10 min at room temperature using 96-well black microplate (Greiner; Catalog #: 655209). The following time intervals were used during data acquisition (30° C. with shaking at 1000 rpm): baseline step, 180 s; loading of RNA, 900 s; washing, 180 s; association of compound, 1800 s; and dissociation of compound, 1800 s. The resulting” for “The resulting”

The next test deals with r(G2C4)8. The test is described as follows: Biolayer interferometry (BLI) binding. Conditions: BLI. Here is the method:
as §1
as §2, with “Streptavidin sensors (SA, #18-5019, ForteBio) were equilibrated with buffer for 10 min at room temperature using 96-well black microplate (Greiner; Catalog #: 655209). The following time intervals were used during data acquisition (30° C. with shaking at 1000 rpm): baseline step, 180 s; loading of RNA, 900 s; washing, 180 s; association of compound, 1800 s; and dissociation of compound, 1800 s. The resulting” for “The resulting”

Another test has as its target d(G4C2)8. As to the kind of experiment: Biolayer interferometry (BLI) binding. Conditions: BLI. Here is the method: as §1
as §2, with “Streptavidin sensors (SA, #18-5019, ForteBio) were equilibrated with buffer for 10 min at room temperature using 96-well black microplate (Greiner; Catalog #: 655209). The following time intervals were used during data acquisition (30° C. with shaking at 1000 rpm): baseline step, 180 s; loading of RNA, 900 s; washing, 180 s; association of compound, 1800 s; and dissociation of compound, 1800 s. The resulting” for “The resulting”

For test [2], the system named is r(G4C2)8 and hnRNP H1 complex. As to the kind of experiment: TR-FRET hnRNP H binding assay. It is filed as biochemical. Conditions: for IC50: inhibiting r(G4C2)8 and hnRNP H1 complex formation, 7 in the absence of Rnase L. Here is the method:
TR-FRET hnRNP H Binding Assay. TR-FRET assays were performed as previously described (12). The mixture was incubated for 15 min at room temperature and then hnRNP H1-His6 was added. After an additional 15 min incubation, streptavidin-XL665 (HTRF, Cisbio Bioassays) and anti-His6-Tb (HTRF, Cisbio Bioassays) were added to a final concentration of 40 nM and 0.44 ng/μL, respectively. After incubating for 1 h, TR-FRET was measured as previously described (12).
Background: TR-FRET usually uses a lanthanide donor and a delayed reading to cut background.

Test [3] deals with C9orf72 intron 1 harboring r(G4C2)exp. As to the kind of experiment: C9orf72 intron 1 RT-qPCR in patient-derived LCLs. It is filed as cell-based, human. To be noted: increasing concentrations. Here is the method:
Measuring Levels of C9orf72 and C9orf72 Variants by RT-qPCR. LCLs were seeded in 6-well plate (˜10^6 cells in 2 mL of growth medium) and incubated overnight at 37° C. Cells were then treated with various concentrations of compound for 24 h or with G4C2-ASO and Control-ASO (100 nM), delivered by transfection with Lipofectamine RNAiMax. RNA was extracted as described above and the expression of C9orf72 variants was determined by RT-qPCR. […] For compound treatment well, medium change was performed with fresh compound every 3-4 days. RNA was extracted as described above and the expression of C9orf72 variants was determined by RT-qPCR.
For orientation: In qPCR the cycle at which signal appears reflects the starting amount.

Test [4] relates to quadruplex form of r(G4C2) repeats, r(G2C2)10, d(G4C2)8, d(G2C2)10. As to the kind of experiment: In vitro Chem-CLIP, other nucleic acids. It is filed as binding.
The test system of test [5] is r(G4C2)8. The test is described as follows: In vitro Chem-CLIP and C-Chem-CLIP. It is filed as binding. Here is the method:
In vitro Chemical Cross-linking and Isolation by Pull-Down (Chem-CLIP) and Competitive Chemical Cross-linking and Isolation by Pull-Down (C-Chem-CLIP): Approximately 10,000 counts of ^32P 5′-end labeled r(G4C2)8 was folded in 1×Folding Buffer at 95° C. for 1 min. After cooling to room temperature, the Chem-CLIP probe at the desired concentrations (5, 10, 100, 500, 1000, 5000, 10000 nM) was added, and the samples were incubated at 37° C. for 18 h. For C-Chem-CLIP studies, the parent compound (10, 100, 500, 1000, 5000, 10000 nM) was incubated with RNA for 1 h before addition of the Chem-CLIP probe (500 nM).
Cross-linked RNAs were clicked to biotin […] azide (10 μL of a 5 mM stock solution in DMSO) by incubating in a solution containing 25 mM HEPES (pH 7.1), 250 mM sodium ascorbate, 10 mM CuSO4, and 50 mM THPTA (tris-hydroxypropyltriazolylmethylamine) for 6 h at 37° C. A 300 μL of streptavidin-agarose beads (Sigma-Aldrich) was washed three times and then resuspended in 1×PBS. An aliquot (20 μL) of the slurry was added to each sample, which was incubated for 1 h at room temperature. The samples were centrifuged and the supernatant containing unbound RNA was transferred to an unused tube. The beads were then washed three times with 1×PBS supplemented with 0.10% (v/v) Tween-20 and centrifuged, with each wash supernatant being added to the tube containing unbound RNA. The amounts of radioactivity in the supernatant and associated with the beads were quantified with a Beckman Coulter LS6500 Liquid Scintillation Counter.

Test [6] concerns C9orf72 mRNA variants. As to the kind of experiment: Cellular Chem-CLIP in patient-derived iPSCs. It is filed as cell-based, human. Here is the method:
(§3) Cellular Chem-CLIP. For cellular Chem-CLIP studies, LCLs were grown in T-25 flasks while iPSCs were grown in 100 mm dishes. The cells were treated with Chem-CLIP probe (500 nM) overnight at 37° C. After removing the medium and washing with 1×PBS, fresh, ice-cold 1×PBS was added, and crosslinking was performed by UV irradiation at 365 nm for 10 min. The cells were collected, and total RNA was extracted with Qiagen micro RNEasy Kit per the manufacturer's protocol. Dynabeads MyOne Streptavidin C1 beads (Thermo Fisher Scientific 65001) were pre-loaded with biotin disulfide azide (Bioconjugate Technologies LLC dba Click Chemistry Tools) by incubating (10 μL of a 5 mM stock solution in DMSO in 500 μL PBS) with beads at room temperature for 30 min before magnetic capture. The beads were washed with High Salt Wash Buffer: (10 mM Tris-HCl pH 7.0, 1 mM EDTA, 4 M NaCl, 0.2% Tween-20) followed by two washes with Nanopure water. The click reaction between cross-linked RNAs and the Dynabeads displaying biotin disulfide azide was completed in a solution containing 25 mM HEPES, pH 7.1, 250 mM sodium ascorbate, 10 mM CuSO4, and 50 mM THPTA for 6 h at 37° C. […] The levels of C9orf72 mRNA in the purified, pull-down fraction were then measured by RT-qPCR as described above.

Test [7] has as its system C9orf72 mRNA variants. The test is described as follows: Cellular Chem-CLIP in patient-derived LCLs. To be noted: lymphoblastoid cells. It counts as cell-based, human. Here is the method:
as §3

The term Kd denotes a measure of binding affinity in units of concentration. For orientation: IC50 means the concentration needed to halve the response being measured.

For the molecule `C#CCn1c2ccc(OC)cc2c2c(C)c3cnccc3c(C)c21` [Compound 1b], the Kd at r(G4C2)8 [1] (r(G4C2) repeats, read-out: Kd) was 11 ± 0.14 µM. Besides, in the test with r(G4C2)8 [1] (Kd relative to 1), the “avidity weaker than 1” value is on record as about 37 fold.

In the case of `Cc1c2ccncc2c(C)c2c1[nH]c1ccc(OCCOCCOCCOCCOCCOCCOc3ccc4[nH]c5c(C)c6ccncc6c(C)c5c4c3)cc12` [Compound 2], the Kd stood at 6 µM at r(G2C2)10; 32 µM on r(G2C4)8 (read-out: Kd, 1); 120 µM on r(G2C4)8 (read-out: Kd, 2); 1.3 µM on d(G4C2)8 (read-out: Kd, 1); 38 µM on d(G4C2)8 (read-out: Kd, 2); 0.05 ± 0.008 µM on r(G4C2)8 [1] (read-out: Kd). Moreover, the equilibrium dissociation constant (Kd) on r(G4C2)8 [1] (read-out: Kd, 2) was 0.12 µM. Further, the “more potent than 1” value in test [2] (IC50 relative to 1) is listed as 10 fold. Besides, in test [2], the IC50 is about 1.8 µM.

The molecule `CC(=O)N(CCOCCOCCOc1ccc2[nH]c3c(C)c4ccncc4c(C)c3c2c1)CCOCCOCCOc1ccc2[nH]c3c(C)c4ccncc4c(C)c3c2c1` [Compound 6] registered a concentration for half-maximal inhibition (IC50) in test [2] of 2.3 ± 0.3 µM. Further, the “C9orf72 intron 1 levels on co-treatment with constant concentration of 7” value in test [3] was “dose-dependently restored”. Besides, the Kd on r(G4C2)8 [1] (exponent printed in row below, read-out: Kd, 1) came out at 0.2 µM; on r(G4C2)8 [1] (read-out: Kd, 2) it was 10.6 µM.

Take `C#CCCC1(CCC(=O)N(CCOCCOCCOc2ccc3[nH]c4c(C)c5ccncc5c(C)c4c3c2)CCOCCOCCOc2ccc3[nH]c4c(C)c5ccncc5c(C)c4c3c2)N=N1` [Compound 4]: in [4], the “pull-down of other nucleic acids more than 5” value was “did not statistically significantly pull-down”. Further, in the test with r(G4C2)8 [5] (500 nM compound), the RNA pulled down is about 40%. Also, the “enrichment of variants that do not contain the repeat expansion” value in the test with C9orf72 mRNA variants [6] and with C9orf72 mRNA variants [7] was “no enrichment” each time. Also, the “enrichment of variants with r(G4C2)exp” value in the test with C9orf72 mRNA variants [6] (500 nM probe) was 2.3±0.2 fold; in the test on C9orf72 mRNA variants [7] (500 nM probe), 1.9±0.4 fold.

In the test with r(G4C2)8 [5] (all concentrations tested, up to 10 μM), `C#CCCC1(CCC(=O)NCCC)N=N1` [Compound 5] yielded an RNA pulled down of under 25%.
